# Test results as given in PubChem BioAssay (NCI).
#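 Briefly, cells in 96-well plates were exposed to five compound concentrations for 48 h, and endpoints were estimated by linear interpolation. The concentration for 50% growth inhibition is given as GI50. At the TGI there is no net growth.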
# How the values were obtained:
# Assay in all cases: NCI tumour cell line growth inhibition, 48 h
# [1] = test system: HT29 colon
# [2] = test system: MOLT-4 leukemia
# [3] = test system: NCI-H23 lung
# [4] = test system: OVCAR-3 ovarian
# [5] = test system: OVCAR-5 ovarian
# [6] = test system: OVCAR-8 ovarian
# [7] = test system: RPMI-8226 leukemia
# [8] = test system: SF-295 CNS
# [9] = test system: SK-MEL-2 melanoma
# [10] = test system: SNB-19 CNS
SMILES,GI50 [1] [µM],TGI [1] [µM],GI50 [2] [µM],TGI [2] [µM],GI50 [3] [µM],TGI [3] [µM],GI50 [4] [µM],TGI [4] [µM],GI50 [5] [µM],TGI [5] [µM],GI50 [6] [µM],TGI [6] [µM],GI50 [7] [µM],TGI [7] [µM],GI50 [8] [µM],TGI [8] [µM],GI50 [9] [µM],TGI [9] [µM],GI50 [10] [µM],TGI [10] [µM]
N[C@@H]1C(=O)N2C(C(=O)OC(c3ccccc3)c3ccccc3)=C(CCl)CS[C@H]12,30.2,> 94,11.3,> 71.2,95.6,> 100,26,75.6,44.5,> 100,27.3,> 77,16.8,50.8,> 94.3,> 100,54.2,> 100,66.7,> 100
O=C(CN1CCN(c2cc3c(cc2F)c(=O)c(C(=O)O)cn3C2CC2)CC1)Nc1nc(-c2ccc(Cl)cc2)cs1,3.43,29.4,3.31,> 100,3.1,> 100,3.51,17.3,8.66,> 100,3.26,> 100,3.21,> 100,2.77,29.6,3.12,21,4.71,> 100
O=C(O)c1cn(C2CC2)c2cc(N3CCN(C(=O)Nc4nc(-c5ccccc5)cs4)CC3)c(F)cc2c1=O,0.636,4.67,1.61,11.5,0.654,14,0.582,16.5,2.36,> 100,1.45,49.2,0.826,7.41,2.13,9.24,1.85,6.42,1.12,> 100
CC1=CC(=O)C(C(C)C)=CC1=Nc1cc(Br)c(O)c(Br)c1,4.05,16,4.53,23.4,4.26,26.1,2.68,7.47,11.8,30.3,4.65,57.8,4.51,27.5,1.4,5.53,8.94,30.1,9.95,26.1
CCC/C=C1\CCC(CN(C)C)C1=O (stereo not given),–,17.9,–,12.6,–,32.8,–,12.3,–,35.6,–,33.7,–,2.75,–,> 55.3,–,29.7,–,> 67
O=[N+]([O-])c1ccc(Cl)c(C2CC(c3cccc4ccccc34)=Nc3ccccc3S2)c1 (stereo not given),–,> 59.7,–,> 56.9,–,20.8,–,51.2,–,> 100,–,30.8,–,> 47.5,–,> 94.1,–,62.8,–,> 100
S=c1[nH]nc(Cc2ccccc2)c(=S)[nH]1,–,> 100,–,> 100,–,> 100,–,> 100,–,> 100,–,> 100,–,> 100,–,> 100,–,> 76.9,–,> 100
CCOc1cc(Br)c(C(C)NC(=O)c2cccc(OC)c2)cc1OCC (stereo not given),5.01,> 100,5.64,> 100,29.1,> 100,5.42,38.7,25.4,> 100,25.6,> 100,13.9,> 92.1,8.3,> 89.5,5.54,> 76.7,11.8,> 100
Cc1nnc2c3nnc(C)n3c3ccccc3n12,–,> 100,–,> 100,–,> 100,–,> 100,–,> 100,–,> 100,–,> 100,–,> 100,–,> 100,–,> 100
O=C(CC1(O)C(=O)Nc2ccc(Br)cc21)c1ccc(Cl)cc1Cl (stereo not given),–,> 100,–,68,–,> 100,–,> 100,–,> 100,–,> 100,–,50.7,–,> 100,–,> 100,–,> 100
CCC(c1ccc(OC)cc1)C(CC)c1ccc(O)c(CN2CCN(C)CC2)c1 (stereo not given),2.01,9.06,6.01,20.4,6.37,20.6,4.1,14.3,14.7,29.3,6.35,21.8,2.92,9.5,2.06,3.95,2.85,6.46,4.88,18.5
FC(F)(F)c1ccc(-c2cnc(-n3cc(COCCN4CCCCC4)nn3)nc2NC2CCCCCC2)cc1,1.46,5.08,3.73,9.26,3.8,7.81,3.98,7.48,4.72,8.79,4.12,8.74,3.85,9.03,4.85,9.85,4.42,8.22,3.61,7.11
Cc1cc(-c2ccccc2)nc(Nc2nc3ccccc3o2)n1,–,> 100,–,> 100,–,> 100,–,> 100,–,> 100,–,> 100,–,> 100,–,> 100,–,> 100,–,> 100
CCOc1ccc2c(c1)[n+]([O-])c(-c1ccc(Br)cc1)c(N)[n+]2[O-],–,> 100,–,> 100,–,70.8,–,> 100,–,> 100,–,> 100,–,> 100,–,> 100,–,> 100,–,> 100
